This is an account of results in patent US20260125351A1, “COMPOUND FOR INDUCING EXPRESSION OF ANTI-AGING GENE KLOTHO AND USE THEREOF” (KLOTHO SCIENCES, priority 2019, published 2026).

Series [1] relates to spontaneous hypertensive rat (SHR). In words: Effect of reducing hypertension in spontaneous hypertensive rat. The format is in vivo. To be noted: SHR rats. As to the method:
A 6-week-old rat male WKY/lzm was used as a normal control, and a 6-week-old rat male SHR/lzm was used as an experimental group in which hypertension was induced. All animals were purchased from the Central Laboratory Animal, and experiments were conducted at the rearing facility in a re-entry area within the Experimental Animal Center of the Osong Medical Innovation Foundation. The […] were quarantined and acclimatized for 7 days after receipt, and the health of the animals was observed during this period.
Group separation was performed on the end day of instrument acclimatization (group separation day) among animals having no general symptoms. […]
• (1) A test material and a positive control material were dissolved in an excipient in a liquid amount of 20 mIJkg according to the corresponding concentration. • (2) After quarantine and acclimatization, the excipient, the test material, and the positive control material were administered after group separation based on the blood pressure and body weight of animals. • (3) All administration groups were administered orally 7 times/week for 8 weeks using a 3 mL syringe with a liquid amount of 20 mL/kg based on the body weight measured once a week. […]
On days 36 and 64 after administration of the drug, blood pressure was measured by placing the animals in a blood pressure measuring frame and allowing the tails to come out. […]

For series [2], the system named is human kidney-2 (HK2) cells. The experiment in a line: Toxicity test, EZ-Cytox kit. Type of series: cell-based. The conditions noted are these: 12.5 μM or 25 μM, 24 hours. The procedure:
Cultured human kidney-2 (HK2) cells were treated with Comparative Example 1, Example 2 and Examples 9 to 10 at a concentration of 25 μM or 12.5 μM, and after 24 hours, cytotoxicity was measured using an EZ-Cytox kit.

For series [3], the system named is klotho protein. The experiment in a line: Klotho protein expression level in cisplatin-treated HK-2 cells. The conditions noted are these: cisplatin (20 μM) disease model, KS1 3 μM, after 24 hours (FIG. 7B). Type of series: cell-based, human. As to the method: As in the protocol in FIG. 7A, a disease model was made by treating HK-2 cells (human renal cells) with cisplatin (20 μM), and then treated with a KS1 compound (Example 10) (3 μM). After 24 hours, the expression degree of the klotho protein was confirmed by obtaining the cells.

The subject of series [4] is unilateral ureter obstruction model. In words: Unilateral ureter obstruction (UUO) model. Type of series: in vivo. The conditions noted are these: UUO mice, 20 mg/kg/day into the abdominal cavity. As to the method: In a unilateral ureter obstruction model, 5-week-old male […] mice were used. After the right ureter was tied with a thread to create a unilateral ureter obstruction model, the KS1 compound (20 mg/kg/day) was injected into the abdominal cavity daily starting 24 hours later. After that, samples were collected by sacrificing the mice on days 7 and 14 and tested (FIG. 8A).

For series [5], the system named is Human renal proximal tubule epithelial cells (RPTECs). In words: Inhibition of cellular senescence, senescence β-galactosidase staining. The format is cell-based. The procedure: Human renal proximal tubule epithelial cells (RPTECs), which are renal tubular epithelial cells, were purchased from Lonza, and as a culture medium, a REGM kit supplied by the same company was also used. Cells were cultured in a 37° C. incubator under 5% CO2 conditions. When the cells reached 80% saturation, the cells were treated with trypsin, transferred to a new culture dish, and subcultured. A compound was attached to the medium such that the final concentration was 2.5 μM, and a constant concentration was maintained by adding the compound thereto during each passage. […] As for the cells inducing senescence, cells subcultured 17 times (#17) in total were used.
“Senescence β-galactosidase staining kit” from Cell Signaling Technology, Inc. was used to confirm the degree of senescence of cells. On the day of the experiment, a staining solution was added to the cells, and the stained cells were confirmed 8 hours later. The number of stained cells was confirmed and expressed as a ratio among the total number of cells observed under a 200-fold microscope, and the number of stained cells at three different locations per sample was counted and averaged. As the senescence of the cells progresses, the expression of the enzyme β-galactosidase increases, and therefore the stained cells may be determined as more senescent cells than the non-stained cells.

Series [6] has as its system klotho (KL) gene. The experiment in a line: Quantitative evaluation of klotho (KL) gene expression level using general PCR in RPTEC cells. Type of series: cell-based, human. Details: dose or concentration left out as unconfirmed. The conditions noted are these: general PCR (FIG. 5). As to the method:
After RPTEC cells, which are epithelial cells of the proximal tubule of the human kidneys, were each treated with the compounds of Examples 7 to 10 at […] for 6 hours. RNA was extracted from the cells, and cDNA was prepared from the extracted RNA using a Superscript II kit from Thermo Fisher Scientific, Inc., and then general PCR was performed.
Information on the primers used in the experiment is as follows.
The DNA amplified by PCR was confirmed by staining with ethidium bromide after electrophoresis on an agarose gel, and the amounts of DNA in the band were quantitatively compared using the SPEedyQuant program, and are illustrated in FIG. 5.

The test system of series [7] is klotho (KL) gene. In words: Quantitative evaluation of klotho (KL) gene expression level using real-time PCR in RPTEC cells. The format is cell-based, human. To be noted: RPTEC cells treated for 6 hours; real-time PCR (FIG. 4). As to the method: For RNA extraction from RPTEC cells, which are epithelial cells of the proximal tubule of the human kidneys, treated with the compounds of Comparative Example 1 and Examples 1 and 2 for 6 hours, an RNeasy kit from Qiagen Inc. was used. The results of preparing cDNA from extracted RNA using a Superscript II kit from Thermo Fisher Scientific. Inc. and performing the quantitative evaluation using Taqman Gene Expression assays from Applied Biosystems as a klotho (KL) gene-specific kit are illustrated in FIG. 4.
For orientation: Quantitative PCR measures a nucleic acid by following its amplification.

The subject of series [8] is promoter of the human klotho gene. In words: Luciferase expression experiment, reporter gene pHKP-luc (promoter up to -2.1 kb upstream) in RPTECs. Type of series: cell-based. As to the method:
(§1) In order to evaluate whether the klotho gene was expressed by the evaluation of luciferase activity, human renal proximal tubule epithelial cells (RPTECs) (ATCC CRL-4031), which are epithelial cells of the proximal tubule of the human kidneys, were purchased from Lonza, USA and used.
(§2) For culturing, a Renal Epithelial Growth Medium (REGM™) Bullet kit, also manufactured by the same Lonza company, was used, and the cells were cultured under conditions of 37° C. and 5% CO2. As a plasmid for luciferase expression, a plasmid in which the promoter site of a human KL (klotho) gene was disposed to regulate the expression of a firefly luciferase gene was used.
The plasmid was incorporated into cells using an X-treme GENE transfection reagent from Roche. The activity of luciferase expressed in cells was measured using a Dual-Luciferase reporter assay system manufactured by Promega. After the cultured cells were treated with each compound at an indicated concentration for 24 hours, the activity of luciferase was measured. It is indirectly shown that the expression of the klotho gene may be increased when the activity of luciferase is high.
The results of confirming the expression of a reporter gene by treating RPTECs, which are epithelial cells of the proximal tubule of the human kidneys, with Examples 1 to 6 at concentrations of 0.5, 1 and 5 μM and Comparative Example 1 at a concentration of 5 μM and using a reporter gene (pHKP-luc) including a promoter included up to −2.1 kb upstream of the human klotho gene are illustrated in FIGS. 2 and 3.
(In general: Reporter assays use an easily measured gene product as a stand-in for the process of interest.)

For series [9] the test system is unchanged. In words: Luciferase expression experiment, klotho promoter reporter (1.7 kbp or 240 bp) in RPTEC cells. The conditions noted are these: 5 μM, 24 hours, reporter with klotho promoter to 1.7 kbp or 240 bp, among Comparative Examples 1 to 4 (FIG. 1). Type of series: cell-based. As to the method: as §1, §2
The plasmid was incorporated into cells using an X-treme GENE transfection reagent from Roche. The activity of luciferase expressed in cells was measured using a Dual-Luciferase reporter assay system manufactured by Promega. After the cultured cells were treated with each compound at an indicated concentration for 24 hours, the activity of luciferase was measured. It is indirectly shown that the expression of the klotho gene may be increased when the activity of luciferase is high. […]

[10] abbreviates: RPTECs, Examples at 0.5, 1 and 5 μM, Comparative Example 1 at 5 μM, pHKP-luc (FIG. 2).

`Fc1ccc(Nc2nc3ccccc3o2)cc1F` [Example 10, N-(3,4-difluorophenyl)benzo[d]oxazol-2-amine]: the “blood pressure reduction effect on co-administration with losartan” value in series [1] (KS1 co-administered with losartan, versus each drug administered independently (FIG. 14)) is listed as “better blood pressure reduction effect”. Besides, the systolic pressure entry in [1] (oral 20 mg/kg/day for 8 weeks, measured days 36 and 64 (FIG. 14)) was “remarkably reduced”. Moreover, the “improvement of toxicity compared to Comparative Example 1” value in series [2] is no less than 20%. Moreover, in series [2] (EZ-Cytox (FIG. 6)), the cytotoxicity result is “least toxicity”. In series [3], the “expression of the klotho protein” value is “increased”. The “renal hypertrophy (kidney size)” value in series [4] (days 7 and 14 (FIG. 8B)) is on record as “no difference in size”. The “nuclear and cytoplasmic changes, H&E staining” value in series [4] (one-week and two-week samples (FIG. 9)) is recorded as “large reduction in tissue destruction”. Further, in [4] (one-week sample (FIG. 12)), the klotho protein expression entry is on record as “increased”. For the same compound, the “fibrosis progression, Sirius Red staining” value in series [4] (versus UUO model not treated with KS1 (FIG. 10)) is recorded as “fibrosis occurred less”. Besides, the “degree of apoptosis, TUNEL staining” value in [4] (versus UUO model not treated with KS1 (FIG. 11)) is “remarkably reduced”. For the same compound, the “expression level of MMP-9 protein (inflammation marker)” value in series [4] (week 1 and week 2 (FIG. 13)) is recorded as “remarkably reduced”. Besides, in [5] (RPTECs subcultured 17 times, 2.5 μM in medium, DMSO about 90% (FIG. 15)), the “cells stained (senescence β-galactosidase)” value is recorded as “about 70%”. Moreover, in series [5] (RPTECs, 17 passages, 2.5 μM), the “decrease in degree of senescence compared to DMSO” value is “about 20%”. Moreover, in [6], the “expression level of the klotho (KL) gene relative to Comparative Example 1” value is recorded as “about 10 times”.
With `Cc1ccc2oc(Nc3ccc(Cl)c(Cl)c3)nc2c1` [Example 2], the “mRNA expression level of the klotho (KL) gene” value in [7] was “at a level similar to that of Comparative Example 1”. Besides, the “expression of the reporter gene” value in series [8] (RPTEC cells, 5 μM, pHKP-luc (FIG. 3)) was “at a level similar to that of Comparative Example 1”; in [8] (setting [10]), “at a level similar to that of Comparative Example 1”.
In the case of `O=C(Nc1ccccc1Cl)c1c[nH]c2ccccc12` [Comparative Example 1, N-(2-chlorophenyl)-1H-indole-3-carboxamide], the luciferase activity result in [9] was “highest”.
For the compound `O=C(Nc1nc2ccccc2o1)c1ccc([N+](=O)[O-])cc1Cl` [Example 1, N-(benzo[d]oxazol-2-yl)-2-chloro-4-nitrobenzamide], the “expression of the reporter gene” value in [8] (setting [10]) is given as “at a level similar to that of Comparative Example 1”.
Consider `N.N.[Cl][Pt][Cl]` [cisplatin, reference compound], for which the “expression of the klotho protein” value in series [3] is listed as “decreased”.
